According to publication PMC6777825, “Differential scanning fluorimetric analysis of the amino-acid binding to taste receptor using a model receptor protein, the ligand-binding domain of fish T1r2a/T1r3” (PLoS ONE, 2019):
Like-named read-outs stand apart in the source and are kept apart here.

What was measured:
[1] = target: T1r2a/T1r3 full-length receptor (Oryzias latipes, UniProt A0A173M094+A0A173M0G2); assay: Ca2+-flux receptor response assay in Flip-In 293 cells stably expressing full-length T1r2a, T1r3 and Gα16-gust44; type: cell-based, O. latipes; conditions: for ΔRFU: average ± s.e.m.
Description: The Ca^2+-flux assay was performed using Flip-In 293 cell line (Life Technologies) stably expressing full-length T1r2a, T1r3, and Gα16-gust44 as described previously. The response stimulated by either 5 or 10 mM amino acid was represented asΔRFU (delta relative fluorescence unit) defined as the maximum fluorescence intensity induced by the addition of the amino acid, subtracted with that of an assay buffer in the absence of amino acid.

medaka T1r2a/T1r3LBD = medaka T1r2a/T1r3LBD (Oryzias latipes, UniProt A0A173M094+A0A173M0G2); assay: Differential scanning fluorimetry (DSF) thermal shift ligand-binding assay; set-up: species or system O. latipes; conditions: for ΔTm: average ± s.e.m., n = 4; for potency estimated from few doses: ΔH0 72.1 kcal mol-1, read-out: Kd-app estimated at a single ligand concentration
Description: The protein sample was prepared as described previously. Briefly, Drosophila S2 cells (Invitrogen) stably expressing C-terminal FLAG-tagged T1r2aLBD and T1r3LBD [11, 21] were cultured in ExpressFiveSFM (LifeTechnologies) for five days at 27 °C. The T1r2a/T1r3-LBD protein was purified from the culture medium by the use of ANTI-FLAG M2 Affinity Gel (SIGMA). The purified protein was dialyzed against the assay buffer (20 mM Tris-HCl, 300 mM NaCl, 2 mM CaCl2, pH 8.0).
The protein sample (~1 μg) was mixed with Protein Thermal Shift Dye (Applied Biosystems) and 10~10,000 μM concentration of each amino acid in 20 μL of assay buffer and loaded to a MicroAmpR Fast Optical 48-Well Reaction Plate (Applied Biosystems). Specifically, to minimize the changes of the chemical and optical condition, the amino acid solutions were prepared by the exact same buffer used for the final dialysis of the protein, followed by the re-adjustment of the pH to ~ 8.0 by addition of either NaOH or HCl, and mixed with the protein diluted with the same buffer.
Fluorescent intensity was measured by the StepOne Real-Time PCR System (Applied Biosystems). The temperature was raised from 25 °C to 99 °C with a velocity of 0.022 °C/sec. The reporter and quencher for detection were set as “ROX” and “none”, respectively. Apparent melting transition temperature (Tm) was determined by the use of the maximum of the derivatives of the melt curve (dFluorescence/dT) by Protein Thermal Shift Software version 1.3 (Applied Biosystems).
The apparent dissociation constant (Kd-app) derived from the DSF results was estimated based on Eq 1 proposed by Schellman, assuming that the unfolding of the protein is reversible: ΔTm=Tm−T0=TmT0R/ΔH^0ln(1+[L]/Kd-app) (1) where [L] is the ligand concentration; Tm and T0 are the apparent melting transition temperatures in the presence and absence of the ligand; R is the gas constant; ΔH^0 is the enthalpy of unfolding at T0, assuming that there are no significant variations under the tested conditions. If the melt curves show biphasic profiles, the second (or the right side) Tm values were adopted for calculation, as described in the Results section.
For multiple regression analyses shown in Fig 2B, the apparent Tm values determined at different ligand concentrations were fitted to Eq 1 by using KaleidaGraph (Synergy Software), assuming that the change of the dissociation constant accompanied by the Tm shift is negligible.

T1r2a/T1r3LBD = test system: T1r2a/T1r3LBD; set-up: method as in Nuemket, Yasui, et al. [11]; conditions: ref Nuemket, Yasui, et al. [11]; read-out: FRET EC50; cited from earlier work
[2] = cited from earlier work; for pI: ref Handbook of Chemistry and Physics, CRC Press; for logKd_CW (polarity): transfer from cyclohexane to an aqueous solution, ref Radzicka & Wolfenden, Biochemistry, 27, 1664 (1988); for Es'c (steric effects) / πα (hydrophobicity) / HP (hydration potential): α-substituent group; for Es'c (steric effects) / πα (hydrophobicity): ref Akamatsu et al., J. Pharm. Sci., 83, 1026 (1994); for HP (hydration potential): ref Wolfenden et al., Biochemistry, 20, 849 (1981); for Hydropathy Index: hydrophobicity/hydrophilicity, ref Kyte & Doolittle, J. Mol. Biol., 157, 105 (1982)
[3] = 5 mM amino acid, n = 6 (n = 12 for L-glutamine)
[4] = estimated from ΔRFU at 10 mM by Hill equation, ΔRFUmax 104.3, read-out: EC50-est
[5] = Tm at 8 or 9 ligand concentrations fitted to Eq 1 (Schellman), fitted parameter ± s.e., read-out: DSF Kd-app
[6] = from ΔTm at 0.1 mM via Eq 1, T0 326.1 K
[7] = from ΔTm at 1 mM via Eq 1, T0 326.1 K
[8] = from ΔTm at 10 mM via Eq 1, T0 326.1 K
[9] = from response at 10 mM, log 1/EC50-est
[10] = log 1/Kd-app, converted from S1 Table values (10 mM; L-Ala 1 mM, L-Gln 0.1 mM)

Chain of T1r2a/T1r3 full-length receptor (A0A173M0G2 entry or part of it): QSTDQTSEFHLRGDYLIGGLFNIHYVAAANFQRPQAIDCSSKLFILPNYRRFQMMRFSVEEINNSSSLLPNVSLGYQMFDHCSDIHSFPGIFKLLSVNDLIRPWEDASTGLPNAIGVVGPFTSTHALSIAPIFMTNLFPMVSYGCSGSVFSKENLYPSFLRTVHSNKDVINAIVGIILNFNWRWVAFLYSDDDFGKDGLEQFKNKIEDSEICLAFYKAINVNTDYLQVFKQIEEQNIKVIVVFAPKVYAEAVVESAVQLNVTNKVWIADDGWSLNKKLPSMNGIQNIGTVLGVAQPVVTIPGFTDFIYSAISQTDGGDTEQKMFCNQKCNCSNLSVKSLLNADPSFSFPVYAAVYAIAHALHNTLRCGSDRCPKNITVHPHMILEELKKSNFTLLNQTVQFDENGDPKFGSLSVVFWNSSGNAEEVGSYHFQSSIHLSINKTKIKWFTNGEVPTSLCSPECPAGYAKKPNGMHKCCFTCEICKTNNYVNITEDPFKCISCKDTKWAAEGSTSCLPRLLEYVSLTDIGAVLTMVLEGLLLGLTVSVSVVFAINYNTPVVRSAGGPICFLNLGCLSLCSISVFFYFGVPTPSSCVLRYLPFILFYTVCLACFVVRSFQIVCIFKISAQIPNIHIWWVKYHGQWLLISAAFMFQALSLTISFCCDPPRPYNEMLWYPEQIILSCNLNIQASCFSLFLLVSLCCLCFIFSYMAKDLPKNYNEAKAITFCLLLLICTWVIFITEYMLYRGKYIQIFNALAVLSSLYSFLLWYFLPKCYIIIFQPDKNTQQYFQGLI
Chain of T1r2a/T1r3 full-length receptor (A0A173M094 entry or part of it): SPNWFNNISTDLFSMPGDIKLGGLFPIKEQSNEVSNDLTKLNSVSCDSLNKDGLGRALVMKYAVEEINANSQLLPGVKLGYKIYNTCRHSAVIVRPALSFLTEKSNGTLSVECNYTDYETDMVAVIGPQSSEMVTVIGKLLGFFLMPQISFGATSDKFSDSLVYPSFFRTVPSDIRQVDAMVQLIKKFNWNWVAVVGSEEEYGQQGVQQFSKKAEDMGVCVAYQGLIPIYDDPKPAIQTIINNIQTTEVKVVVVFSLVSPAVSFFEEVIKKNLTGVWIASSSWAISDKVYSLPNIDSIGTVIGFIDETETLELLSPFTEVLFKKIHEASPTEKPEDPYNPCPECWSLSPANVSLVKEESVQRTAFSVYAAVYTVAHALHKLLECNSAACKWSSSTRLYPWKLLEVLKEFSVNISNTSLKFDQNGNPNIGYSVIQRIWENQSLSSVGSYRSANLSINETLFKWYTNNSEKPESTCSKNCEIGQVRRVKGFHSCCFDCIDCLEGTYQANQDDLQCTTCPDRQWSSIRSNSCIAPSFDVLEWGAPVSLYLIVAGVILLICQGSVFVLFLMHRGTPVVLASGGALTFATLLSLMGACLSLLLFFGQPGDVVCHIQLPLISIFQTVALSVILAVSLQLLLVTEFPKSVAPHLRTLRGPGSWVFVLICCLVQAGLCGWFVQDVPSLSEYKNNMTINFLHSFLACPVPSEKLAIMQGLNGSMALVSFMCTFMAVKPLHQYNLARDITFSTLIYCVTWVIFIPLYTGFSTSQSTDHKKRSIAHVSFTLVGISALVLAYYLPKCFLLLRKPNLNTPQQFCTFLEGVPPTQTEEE
Chain of medaka T1r2a/T1r3LBD (A0A173M094 entry or part of it): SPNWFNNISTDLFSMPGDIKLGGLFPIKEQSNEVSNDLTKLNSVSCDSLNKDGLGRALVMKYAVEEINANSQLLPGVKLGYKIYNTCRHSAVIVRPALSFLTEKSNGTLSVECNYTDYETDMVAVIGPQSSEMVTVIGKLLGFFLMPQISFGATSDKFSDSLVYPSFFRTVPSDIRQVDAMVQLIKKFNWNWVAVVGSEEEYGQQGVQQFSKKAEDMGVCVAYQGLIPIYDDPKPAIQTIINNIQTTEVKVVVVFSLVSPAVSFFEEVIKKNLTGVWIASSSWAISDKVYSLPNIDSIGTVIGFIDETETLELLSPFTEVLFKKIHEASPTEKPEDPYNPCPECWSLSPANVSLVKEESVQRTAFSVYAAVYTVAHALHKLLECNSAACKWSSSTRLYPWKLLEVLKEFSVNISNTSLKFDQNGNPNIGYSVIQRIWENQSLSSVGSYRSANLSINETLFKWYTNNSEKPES
Chain of medaka T1r2a/T1r3LBD (A0A173M0G2 entry or part of it): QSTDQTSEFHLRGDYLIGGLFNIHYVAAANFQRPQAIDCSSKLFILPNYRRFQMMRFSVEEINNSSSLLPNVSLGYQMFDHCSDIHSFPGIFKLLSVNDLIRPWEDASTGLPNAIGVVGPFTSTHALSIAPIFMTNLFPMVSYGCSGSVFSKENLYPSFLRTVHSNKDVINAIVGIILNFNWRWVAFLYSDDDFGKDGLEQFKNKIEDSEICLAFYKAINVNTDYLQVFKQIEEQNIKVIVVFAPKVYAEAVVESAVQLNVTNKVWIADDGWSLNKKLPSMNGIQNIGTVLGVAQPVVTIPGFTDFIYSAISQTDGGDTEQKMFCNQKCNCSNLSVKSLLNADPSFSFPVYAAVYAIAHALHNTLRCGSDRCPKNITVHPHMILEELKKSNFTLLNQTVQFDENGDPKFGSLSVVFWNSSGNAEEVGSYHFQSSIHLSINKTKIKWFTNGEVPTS

Row | SMILES | ΔRFU [1, 3] | ΔRFU ([1]; 10 mM amino acid, n = 6) | EC50 [1, 4] [µM] | ΔTm (medaka T1r2a/T1r3LBD; 0.1 mM amino acid) [K] | ΔTm (medaka T1r2a/T1r3LBD; 1 mM amino acid) [K] | ΔTm (medaka T1r2a/T1r3LBD; 10 mM amino acid) [K] | potency estimated from few doses (medaka T1r2a/T1r3LBD; [6]) [µM] | potency estimated from few doses (medaka T1r2a/T1r3LBD; [8]) [µM] | pEC50-est [1, 9] | pKd-app (medaka T1r2a/T1r3LBD; [10]) | Kd (medaka T1r2a/T1r3LBD; [5]) [µM] | potency estimated from few doses (medaka T1r2a/T1r3LBD; [7]) [µM] | EC50 (T1r2a/T1r3LBD) [µM] | pI [2] | logKd_CW (polarity) [2] | Es'c (steric effects) [2] | πα (hydrophobicity) [2] | HP (hydration potential) [2] | Hydropathy Index [2] | further results
1 | N[C@@H](CCC(=O)O)C(=O)O [L-Glu, glutamate] | 3.73 ± 1.63 | 30.3 ± 1.85 | 24400 | 0.55 ± 0.26 | 0.48 ± 0.14 | 7.06 ± 0.08 | 488 | 1050 | 1.61 | 2.98 | 422 ± 211 | 5700 | 1070 ± 382 | 3.22 | 2.25 | -0.82 | 0.02 | -10.2 | – | –
2 | N[C@@H](CO)C(=O)O [L-Ser] | 11.5 ± 2.07 | 33.5 ± 7.59 | 21100 | -0.14 ± 0.03 | -1.20 ± 0.03 | 7.32 ± 0.06 | – | 956 | 1.67 | 3.02 | – | – | – | 5.68 | 2.49 | -0.48 | -0.19 | -5.06 | -0.8 | EC50 ([1]; estimated from ΔRFU at 5 mM by Hill equation, ΔRFUmax 104.3, read-out: EC50-est): 40500 µM; pEC50-est ([1]; from response at 5 mM, log 1/EC50-est): 1.39

Further compounds by falling EC50 [1, 4], results first:

Row | ΔRFU [1, 3] | ΔRFU ([1]; 10 mM amino acid, n = 6) | EC50 [1, 4] [µM] | ΔTm (medaka T1r2a/T1r3LBD; 0.1 mM amino acid) [K] | ΔTm (medaka T1r2a/T1r3LBD; 1 mM amino acid) [K] | ΔTm (medaka T1r2a/T1r3LBD; 10 mM amino acid) [K] | potency estimated from few doses (medaka T1r2a/T1r3LBD; [6]) [µM] | potency estimated from few doses (medaka T1r2a/T1r3LBD; [8]) [µM] | pEC50-est [1, 9] | pKd-app (medaka T1r2a/T1r3LBD; [10]) | SMILES | Kd (medaka T1r2a/T1r3LBD; [5]) [µM] | potency estimated from few doses (medaka T1r2a/T1r3LBD; [7]) [µM] | EC50 (T1r2a/T1r3LBD) [µM] | pI [2] | logKd_CW (polarity) [2] | Es'c (steric effects) [2] | πα (hydrophobicity) [2] | HP (hydration potential) [2] | Hydropathy Index [2] | further results
3 | 3.20 ± 1.51 | 18.2 ± 6.01 | 47400 | -0.06 ± 0.09 | -1.27 ± 0.08 | 6.99 ± 0.09 | – | 1080 | 1.32 | 2.97 | C[C@@H](O)[C@H](N)C(=O)O [L-Thr] | – | – | – | 5.6 | 1.89 | -0.73 | 0.07 | -4.88 | -0.7 | –
4 | 3.89 ± 1.23 | 32.4 ± 7.56 | 22200 | 0.11 ± 0.24 | -0.77 ± 0.14 | 7.85 ± 0.03 | 2630 | 793 | 1.65 | 3.10 | CC(C)[C@H](N)C(=O)O [L-Val] | – | – | – | 5.96 | -2.97 | -1.29 | 1 | 1.99 | 4.2 | –
5 | 104.3 ± 4.24 | 81.0 ± 4.64 | 2880 | 6.26 ± 0.06 | 10.80 ± 0.05 | 13.6 ± 0.02 | 14.1 | 119 | – | – | NC(=O)CC[C@H](N)C(=O)O [L-Gln, L-glutamine] | 30.9 ± 5.8 | 29.2 | 11.5 ± 3.4 | – | – | – | – | – | – | ΔRFU ([1]; 5 mM amino acid, n = 6 (n = 12 for L-glutamine), listed as L-glutamine): 104.3; EC50 ([1]; from response at 10 mM, log 1/EC50-est, read-out: pEC50-est (converted)): 2880 µM; increase of Tm (ΔTm), second Tm (medaka T1r2a/T1r3LBD; 300 μM ligand): 8.7 ± 0.1 °C; Kd (medaka T1r2a/T1r3LBD; log 1/Kd-app, converted from S1 Table values (10 mM; L-Ala 1 mM, L-Gln 0.1 mM), read-out: pKd-app (converted)): 14.1 µM
